The text below walks through data of ChEMBL document CHEMBL5360530, “Structure activity relationship (SAR) and anticancer activity of pyrrolidine derivatives: Recent developments and future prospects (A review)” (Eur J Med Chem, 2023).

≈ marks a conversion by molar mass, not a printed value. Square brackets hold non-standard residues; d marks the D form. Peptide text beside a SMILES is read from it. * marks the point of attachment. ξ: configuration not given here. X2 = CC[C@H](C)[C@@H](CN[C@@H](Cc1ccccc1)C(=O)OC)N*; X1 = O=C(OC(C(F)(F)F)C(F)(F)F)*; ξP = O=C(O)C1CCCN1

For series [1], the system named is A549. Description: Anticancer activity against human A549 cells assessed as cell growth inhibition measured after 24 hrs by MTT assay. The class given is functional, cell-based. The note with it: A549, 24 h. For orientation: Tetrazolium dyes change colour on reduction, which living cells bring about.
The subject of a further series is Jurkat. Description: Anticancer activity against human Jurkat cells assessed as cell growth inhibition measured after 48 hrs by MTT assay. The class given is functional, cell-based.
The test system of series [2] is HCT-116. Nature of the series: Anticancer activity against human HCT-116 cells assessed as cell growth inhibition measured after 48 hrs by MTT assay. The class given is functional, cell-based. The conditions noted are these: HCT-116, 48 h.
Series [3] has as its system HT-29. Nature of the series: Anticancer activity against human HT-29 cells assessed as cell growth inhibition measured after 48 hrs by MTT assay. The class given is functional, cell-based. The note with it: HT-29, 48 h.
Series [4] is described as follows: Cytotoxicity against human Adipose tissue derived mesenchymal stem cell assessed as cell growth inhibition measured after 48 hrs by MTT assay. The format is toxicity, cell-based. The note with it: adipose tissue derived mesenchymal stem cells.
A further series concerns P388. Nature of the series: Anticancer activity against P388 cells assessed as cell growth inhibition. The class given is functional, cell-based. The note with it: Mus musculus.
Series [5] concerns A549. Nature of the series: Anticancer activity against human A549 cells assessed as cell growth inhibition measured after 72 hrs by CCK-8 assay. The format is functional, cell-based. The note with it: A549, 72 h.
The subject of series [6] is HCT-116. Nature of the series: Anticancer activity against human HCT-116 cells assessed as cell growth inhibition measured after 72 hrs by CCK-8 assay. The format is functional, cell-based. The conditions noted are these: HCT-116, 72 h.
A further series relates to MDA-MB-231. Nature of the series: Anticancer activity against human MDA-MB-231 cells assessed as cell growth inhibition measured after 72 hrs by CCK-8 assay. The class given is functional, cell-based. The conditions noted are these: MDA-MB-231, 72 h.
Another series deals with HeLa. Description: Anticancer activity against human HeLa cells assessed as cell growth inhibition measured after 48 hrs by MTT assay. The format is functional, cell-based.
In series [7] the test system is MCF7. Description: Anticancer activity against human MCF7 cells assessed as cell growth inhibition measured after 24 hrs by SRB assay. The note with it: MCF7, 24 h. The format is functional, cell-based.
For series [8], the system named is HCT-116. Description: Anticancer activity against human HCT-116 cells assessed as cell growth inhibition measured after 24 hrs by SRB assay. The conditions noted are these: HCT-116, 24 h. The class given is functional, cell-based.
The test system of the next series is HepG2. Description: Anticancer activity against human HepG2 cells assessed as cell growth inhibition measured after 24 hrs by SRB assay. The class given is functional, cell-based. The conditions noted are these: HepG2, 24 h. On the technique in general: In SRB staining, fixed cells bind dye roughly in proportion to their protein.
For series [9], the system named is A549. Nature of the series: Anticancer activity against human A549 cells assessed as cell growth inhibition by MTT assay. The format is functional, cell-based.
The test system of series [10] is MCF7. Description: Anticancer activity against human MCF7 cells assessed as cell growth inhibition measured after 48 hrs by MTT assay. The class given is functional, cell-based. The note with it: MCF7, 48 h.
The next series has as its system K562. Nature of the series: Anticancer activity against human K562 cells assessed as cell growth inhibition measured after 48 hrs by MTT assay. The format is functional, cell-based. The note with it: K562, 48 h.
Series [11] relates to HT-29. Description: Anticancer activity against human HT-29 cells xenografted with BALB/c mouse assessed as tumor growth inhibition at 50 mg/kg, iv measured twice daily for 20 days relative to control. The class given is functional. The conditions noted are these: HT-29, 480 h, time 20 day, read-out: TGI.
In series [12] the test system is HT-29. Nature of the series: Anticancer activity against human HT-29 cells xenografted with BALB/c mouse assessed as tumor growth inhibition at 50 mg/kg, po measured twice daily for 20 days relative to control. The class given is functional. The note with it: HT-29, 480 h, time 20 day, read-out: TGI. (In general: Xenograft models place foreign cells or tissue in a host animal.)

Series [13] concerns MCF7. Description: Anticancer activity against human MCF7 cells assessed as cell growth inhibition measured after 48 hrs by WST-1 assay. The class given is functional, cell-based. The conditions noted are these: MCF7, 48 h.
Series [14] relates to HT-29. Nature of the series: Anticancer activity against human HT-29 cells assessed as cell growth inhibition measured after 24 hrs by MTT assay. The class given is functional, cell-based. The note with it: HT-29, 24 h.
The subject of series [15] is MCF7. Nature of the series: Anticancer activity against human MCF7 cells assessed as cell growth inhibition by MTT assay. The format is functional, cell-based.
The test system of series [16] is M-HeLa. Nature of the series: Anticancer activity against human HelaM cells assessed as cell growth inhibition measured after 24 hrs by DAPI and propidium iodide staining based assay. The class given is functional.
Series [17] in a line: Cytotoxicity against human Chang liver cells assessed as cell growth inhibition measured after 24 hrs by DAPI and propidium iodide staining based assay. The class given is toxicity.
In series [18] the test system is M-HeLa. Description: Induction of apoptosis in human HelaM cells upto 100 uM measured after 24 hrs relative to control. The format is functional. The conditions noted are these: up to 100 µM.
In series [19] the test system is MCF7. Description: Anticancer activity against human MCF7 cells assessed as cell growth inhibition at 50 uM measured after 48 hrs by MTT assay relative to control. The class given is functional.
A further series has as its system COS-7. Description: Anticancer activity against COS-7 cells assessed as cell growth inhibition at 50 uM measured after 48 hrs by MTT assay relative to control. The format is functional. The conditions noted are these: Chlorocebus aethiops.
The subject of series [20] is A549. Nature of the series: Anticancer activity against human A549 cells assessed as cell viability at 100 ug/ml measured after 24 hrs by MTT assay relative to control. The note with it: read-out: Activity. The class given is functional.
In series [21] the test system is A549. Description: Anticancer activity against human A549 cells assessed as cell viability at 50 ug/ml measured after 24 hrs by MTT assay relative to control. The conditions noted are these: read-out: Activity. The format is functional.
Series [22] deals with A549. Description: Anticancer activity against human A549 cells assessed as cell viability measured after 24 hrs by MTT assay. The format is functional, cell-based. The conditions noted are these: A549, 24 h.
For a further series, the system named is SH-SY5Y. Description: Anticancer activity against human SH-SY5Y cells assessed as cell death upto 1000 ug/ml measured upto 72 hrs by MTT assay relative to control. The format is functional. The note with it: dose <= 1000 µg/ml, up to 1000 µg/mL.
Series [23] relates to HT-29. Nature of the series: Anticancer activity against human HT-29 cells assessed as cell death upto 1000 ug/ml measured upto 72 hrs by MTT assay relative to control. The format is functional. The conditions noted are these: dose <= 1000 µg/ml, up to 1000 µg/mL.

Turning to `O=C1C2=CC=CC3C=CC=C(C23)C12N[C@@H](Cc1ccc(O)cc1)[C@@H]([N+](=O)[O-])[C@H]2c1ccc(Br)cc1` (stereo not given in full), the values for the IC50 with A549 [1] and in the series on Jurkat were 65.7 µM and 33.1 µM, respectively.

As to `O=C1CCC(=O)N1c1ccc(O)cc1`, the values for the IC50 in the series with HCT-116 [2] and in the series with HT-29 [3] were 1.74 µM and 1.03 µM, respectively. Moreover, the IC50 – broadly, the concentration that gives 50% inhibition – at 48 h in series [4] turned out to be 1.32 µM.

On to `O=C(/C=C/c1ccc(O)cc1)N1CCCC1`, for which the IC50 in the series with P388 turned out to be 11.3 µg/mL (≈ 52.2 µM).

Regarding `OC(CN1CCCCC1)Cn1c2ccc(Cl)cc2c2cc(Cl)ccc21` (stereo not given), the IC50 in the series on A549 [5], with HCT-116 [6] and in the series with MDA-MB-231 was 6 µM in each case.

In the case of `CCCCNCC(O)Cn1c2ccc(Cl)cc2c2cc(Cl)ccc21` (stereo not given), the IC50 with A549 [5] came out at 6 µM; in the series on HCT-116 [6], 6.5 µM; with MDA-MB-231, 7.5 µM.

`CC[C@H](C)[C@H](NC(=O)OC(C(F)(F)F)C(F)(F)F)C(=O)N[C@@H](CC(C)C)C(=O)N1CCCC1C(=O)N[C@@H](CC(C)C)C(=O)N[C@H](C(=O)OC)C(C)C` (stereo not given in full) (X1-IL[ξP]LV-OMe): in the series with HeLa, the half-inhibitory concentration (IC50) was 2.73 µM.

As for `COc1cccc2c1C(=O)c1c(O)c3c(c(O)c1C2=O)C[C@@](O)(C(=O)CO)C[C@@H]3O[C@H]1C[C@H](N)[C@H](O)[C@H](C)O1` [DOXORUBICIN], the IC50 in the series with MCF7 [7] stood at 4.89 µM; in the series with HCT-116 [8], 7.03 µM; in the series on HepG2 it was 5.59 µM.

`CCOC(=O)[C@H]1CCCN1C(=O)Cc1noc2ccccc12`: the concentration for half-maximal inhibition (IC50) with A549 [9] is 361 µM.

On to `COc1ccc([C@@H]2[C@H]([N+](=O)[O-])[C@H](Cc3ccc(O)cc3)NC23C(=O)c2cccc4cccc3c24)cc1` (stereo not given in full), for which, in the series with A549 [1], the IC50 stood at 96.5 µM.

Regarding `Cc1ccc(C2CC(c3ccc(F)cc3)=NN2C(=O)CN2C(=O)CCC2=O)cc1` (stereo not given), the values for the IC50 in the series with MCF7 [10], in the series with HT-29 [3] and in the series on K562 were 0.07 µM, 0.92 µM and 47.2 µM, respectively. Moreover, the inhibition in vivo at 50 mg/kg in the series on HT-29 [11] is 66%; with HT-29 [12] it was 60%.

Take `O=C1C2=CC=CC3C=CC=C(C23)C12N[C@@H](Cc1ccc(O)cc1)[C@@H]([N+](=O)[O-])[C@H]2c1ccc(Cl)cc1` (stereo not given in full): the IC50 worked out at 40.2 µM in the series on A549 [1] and 33.6 µM in the series on Jurkat.

For the molecule `O=c1[nH]cc(F)c(=O)[nH]1` [FLUOROURACIL], the IC50 in the series with MCF7 [10] came to 45 µM; in the series on MCF7 [13] it was 78.3 µM; in the series on HT-29 [14] it was 80.6 µM; with MCF7 [15], 45 µM.

Turning to `Oc1cc2c(cc1C1CCCCC1)OCO2`, the IC50 in the series with M-HeLa [16] was determined as 14.7 µM. In [17], the IC50 at 24 h is above 100 µM. In the series on M-HeLa [18], the Activity amounted to 25%.

For the molecule `N#C[C@@H]1CCCN1C(=O)Cc1noc2ccccc12`, the results for the IC50 in the series on A549 [9] and with MCF7 [15] were 90.3 µM and 2.36 µM, respectively.

With `CC[C@H](C)[C@@H](CN[C@@H](Cc1ccccc1)C(=O)OC)NC(=O)[C@@H]1CCCN1C(=O)[C@H](CC(C)C)NC(=O)[C@@H]1CCCN1C(=O)[C@H](CC(C)C)NC(=O)OC(C(F)(F)F)C(F)(F)F` (X1-LPLP-X2), in the series on HeLa, the IC50 turned out to be 4.3 µM.

`O=C1Nc2ccccc2C12CCNC2c1ccccc1` (stereo not given): the inhibition (commonly the drop in the measured response relative to a control, in per cent) at 50 µM in the series on MCF7 [19] amounted to 25.2%; with COS-7, 0.51%.

Consider `O=C1CCC(=O)N1CN(Cc1ccccc1)Cc1ccccc1`, for which, in the series with A549 [20], the viability at 100 µg/mL came out at 72%. For the same molecule, the viability at 50 µg/mL with A549 [21] was 78.8%. Besides, in the series with A549 [22], the IC50 turned out to be 176 µg/mL (≈ 572 µM).

`O=C(/C=C/c1ccc(O)c(O)c1)N1CCCC1`: the concentration for half-maximal inhibition (IC50) in the series with P388 was found to be 53.5 µg/mL (≈ 229 µM).

`NC(=O)[C@@H]1CCCN1C(=O)Cc1noc2ccccc12`: the half-maximal inhibitory concentration (IC50) with A549 [9] came to 4.72 µM; in the series on MCF7 [15] it was 4.39 µM.

For the molecule `CCn1c2ccccc2c2cc(NC(=O)CCN3CCCC3)ccc21`, the Activity is recorded as 61% in the series with SH-SY5Y and 66% in the series with HT-29 [23].
